Test results from article PMC6458850, “CXXC5 mediates growth plate senescence and is a target for enhancement of longitudinal bone growth” (Life Science Alliance, 2019).

What was measured:
Various cells = experiment: Cytotoxicity test (WST-1 cell viability); format: cell-based; conditions: 0.01-100 μM, 24 hours
Procedure: intravenous; IP, intraperitoneal; Tmax, Time to maximum plasm concentration; Cmax, Maximum plasma concentration after intraperitoneal injection; AUC, Area under the curve; CL, clearance; Vss, Volume of distribution at steady state; T1/2, Elimination half-life; F, […]
Table R2. Cytotoxicity test for KY19382 […]
viability was measured using WST-1. The IC50 value was determined from the dose-response […]
This manuscript addresses the role of CXXC5, a negative regulator of Wnt/beta-Catenin signaling, on growth plate senescence and associated longitudinal bone growth.
Authors used a peptide PTD-DBMP, and a small molecule KY19382, which interferes with GSK-3b activity and CXXC5-DVL interaction. Such interference activates Wnt/beta-catenin signaling that delays growth plate senescence, resulting in longitudinal bone growth in mice; thereby proposing CXXC5 as a potential target to enhance longitudinal growth of children at the risk of height retardation. This is a well
(1 picture or pasted object on this page, not shown here)

[1] = In vivo pharmacokinetics of KY19382; conditions: SD male rat; for AUC(0-t): 0 to 24 hour
Procedure: Animal studies were approved by the Institutional Animal Care and use committee at KRIBB. Briefly, specific pathogen-free male Sprague−Dawley (SD) rats (10 weeks old, body weight 298−315 g), purchased from Koatech Co. […] Dosing solutions were prepared in dimethylacetamide (DMAC)/polyethylene glycol 400 (PEG400) (20/80, v/v %) for administrations, and administered at dosing volumes of 5 and 10 ml/kg for iv and ip, respectively. A 100 μl aliquot of each plasma sample was prepared, and three volumes of ice-cold acetonitrile containing carbamazepine (internal standard) were added. The mixture was centrifuged at 910 g for 10 minutes, and the supernatant was subjected to LC−MS/MS analysis. Pharmacokinetic parameters were calculated by standard noncompartmental analysis of plasma concentration−time profiles using Kinetica 4.4.1 (Thermo Fisher Scientific, Inc., Woburn, MA, USA). The areas under the plasma concentration−time curves (AUC) were calculated by the linear−trapezoidal method. Systemic plasma clearance (CLP) was calculated as follows: CLP = dose/AUCinf. Terminal elimination half-life (t1/2) was calculated by the following equation: t1/2 = 0.693/λZ where λZ is the terminal disposition rate constant. Volume of distribution at steady state (VSS) was calculated as follows: VSS = dose × AUMCinf/(AUCinf)^2, where AUMCinf is the area under the first moment of the plasma concentration−time curve extrapolated to infinity. Bioavailability (F) was calculated as follows: F (%) = (AUCip/AUCiv)(doseiv/doseip) × 100.
Pharmacokinetic parameters were based on the mean plasma concentration-time profiles of SD male rat (n=3). Pharmacokinetic parameters were obtained by non-compartmental analysis of the plasma concentration-time profiles using KineticaTM 4.4.1 (Thermo Fisher Scientific, Inc., Woburn, MA, USA). AUClast was calculated from 0 to 24 hour. IV, intravenous; IP, intraperitoneal; Tmax, Time to maximum plasm concentration; Cmax, Maximum plasma concentration after intraperitoneal injection; AUC, Area under the curve; CL, clearance; Vss, Volume of distribution at steady state; T1/2, Elimination half-life; F, bioavailability.

[2] = Sprague-Dawley, plasma, IP, 5 mg/kg, mean
[3] = Sprague-Dawley, plasma, IV, 1 mg/kg, mean

CL ([1]; IP, 5 mg/kg, mean): 7.83 mL/min/kg
bioavailability ([1]; Sprague-Dawley, plasma, intraperitoneal, IP 5 mg/kg vs IV 1 mg/kg, read-out: F (intraperitoneal bioavailability)): 16.7%
Cmax [1, 2]: 463 ng/mL
Tmax [1, 2]: 1 h
half-life [1, 2]: 16.2 h
AUC(0-t) [1, 2]: 6560 ng·h/mL
clearance [1, 3]: 2 mL/min/kg
half-life [1, 3]: 3.33 h
AUC(0-t) [1, 3]: 7830 ng·h/mL
Vd ([1]; Sprague-Dawley, plasma, IV, 1 mg/kg, mean, read-out: Vss): 0.33 L/kg
Compound: CON=C1C(=C2C(=O)Nc3cc(Cl)c(Cl)cc32)Nc2ccccc21 [KY19382, 5,6-dichloroindirubin-3′-methoxime]
cytotoxicity in variety of cell types (Various cells): does not induce cytotoxicity
